One data set deals with Aedes aegypti. In words: Laboratory-scale tray larvicide test. It counts as in vivo. The following applies: carrier mouse food; 70 mg per tray; loading concentration 5 μM; fluorescent lamp. The procedure: (§1) Laboratory strains of Anopheles stephensi, M and S (Kisumu), chromosomal forms of An. gambiae, An. arabiensis and Aedes aegypti, as well as field-collected Anopheles spp. and Aedes spp. larvae were used. Laboratory mosquitoes were maintained at 28-30° C., >90% RH and a photoperiod of 12 h. Light intensity ranged between 0.5 mW/cm^2 (fluorescent lamp) and 185 mW/cm^2 (sunlight).
(§2) C12 or C14 porphyrin solutions at 5-100 μM concentrations were pre-incubated at room temperature in the darkness with 15-60 mg of carrier (either Eudragit or ground mouse food or cat food) for 4-12 hours under gentle shaking. After incubation the solutions were filtered, and the loaded carrier was dried at room temperature or in an oven (45° C.).
Batches of 60-100 L2, L3 or L4 larvae were introduced into the trays after sunset (or artificial light off). Larval mortality was evaluated the next day starting from 8.00 am, and the time required to reach at least 90% mortality was recorded. Larvae not moving or not showing an escaping response at probing were defined as dead or dying, and counted together (Tables 2 and 3). Pupae occasionally formed throughout the irradiation time were discarded and excluded from the evaluation. An equal number of batches of larvae prepared in the same way were kept in continuous darkness and mortality was evaluated similarly, to assess toxicity in the dark. […]

Data set [1] can be described thus: Singlet oxygen quantum yield (DMA chemical quenching). It counts as physicochemical. To be noted: DMA quenching in DMF; 400-800 nm, 100 mW/cm^2. The procedure: The potential of the C14 porphyrin as a photosensitising agent was assessed on the basis of the quantum yield (φΔ) of singlet oxygen (^1O2) generation by the photoexcited triplet state of the porphyrin, namely the number of ^1O2 molecules generated per number of absorbed light photons. In the present study φΔ was measured by following the decrease in the fluorescence emission of 9,10-dimethyl-anthracene (DMA) upon its photosensitised conversion into the corresponding non-fluorescent 9,10-endoperoxide. […] In a typical experiment, a DMA solution (1.5 ml, initial absorbance around 1 at 380 nm) and porphyrin solution (1.5 ml, initial absorbance around 0.4 at 420 nm) in N,N-dimethyl-formamide (DMF) were placed in a quartz cuvette with a 1 cm optical path and irradiated with 400-800 nm light wavelengths (Teclas lamp, 100 mW cm-2) at 20° C.±2° C. under gentle magnetic stirring for different periods of time up to 20 min. The DMA fluorescence emission was recorded in the 380-550 nm wavelength range with excitation at 360 nm. The first-order rate constant of the photoprocess was obtained by plotting In F0/F as a function of the irradiation time t, where F0 and F represent the fluorescence intensity at time 0 and time t, respectively. The slope of the linear plot thus obtained allowed the rate constant of the photoprocess to be calculated. […]

A further data set concerns An. stephensi. In words: Laboratory-scale tray larvicide test. It counts as in vivo. To be noted: carrier mouse food; 6 mg per tray; loading concentration 0.5 μM; fluorescent lamp. The procedure:
as §1, §2
One litre capacity, transparent plastic trays containing wells with each 500 ml water and 6-60 mg of the composition of the present invention were prepared. Batches of 60-100 L2, L3 or L4 larvae were introduced into the trays after sunset (or artificial light off). Larval mortality was evaluated the next day starting from 8.00 am, and the time required to reach at least 90% mortality was recorded. Larvae not moving or not showing an escaping response at probing were defined as dead or dying, and counted together (Tables 2 and 3). Pupae occasionally formed throughout the irradiation time were discarded and excluded from the evaluation. An equal number of batches of larvae prepared in the same way were kept in continuous darkness and mortality was evaluated similarly, to assess toxicity in the dark.
Light intensity range: 0.5-185 mW/cm^2.

Turning to `CCCCCCCCCCCCCC[n+]1ccc(-c2c3nc(c(-c4cc[n+](C)cc4)c4ccc([nH]4)c(-c4cc[n+](C)cc4)c4nc(c(-c5cc[n+](C)cc5)c5ccc2[nH]5)C=C4)C=C3)cc1.Cc1ccc(S(=O)(=O)[O-])cc1.Cc1ccc(S(=O)(=O)[O-])cc1.Cc1ccc(S(=O)(=O)[O-])cc1.Cc1ccc(S(=O)(=O)[O-])cc1` [C14, meso-tri(N-methyl-pyridyl), mono(N-tetradecyl-pyridyl)porphine], the figures for the “Time to reach ≧90% mortality” value with Aedes aegypti and in the data set on An. stephensi were 3 h and 1 h, respectively. Moreover, in data set [1], the “quantum yield of ^1O2 photogeneration” value worked out at 0.46.

These data come from patent publication US20130296370A1, “COMPOSITION COMPRISING A PHOTOACTIVATABLE LARVICIDE” (UNIVERSITA DEGLI STUDI DI PADOVA, priority 2010, published 2013).
